Measurements: ChEMBL document CHEMBL5223106, “Targeting non-alcoholic fatty liver disease: Design, X-ray co-crystal structure and synthesis of 'first-in-kind' inhibitors of serine/threonine kinase25” (Bioorg Med Chem Lett, 2022)
Each block holds one molecule with its values, some of them ahead of it. Activity calls are given as the source filed them. The rule behind the calls is not given here.

Key:
[1] = molecular target: T1, Serine/threonine-protein kinase 25 (Homo sapiens, UniProt O00506); assay: Inhibition of STK25 (unknown origin)
Target sequence in this assay (O00506 whole entry): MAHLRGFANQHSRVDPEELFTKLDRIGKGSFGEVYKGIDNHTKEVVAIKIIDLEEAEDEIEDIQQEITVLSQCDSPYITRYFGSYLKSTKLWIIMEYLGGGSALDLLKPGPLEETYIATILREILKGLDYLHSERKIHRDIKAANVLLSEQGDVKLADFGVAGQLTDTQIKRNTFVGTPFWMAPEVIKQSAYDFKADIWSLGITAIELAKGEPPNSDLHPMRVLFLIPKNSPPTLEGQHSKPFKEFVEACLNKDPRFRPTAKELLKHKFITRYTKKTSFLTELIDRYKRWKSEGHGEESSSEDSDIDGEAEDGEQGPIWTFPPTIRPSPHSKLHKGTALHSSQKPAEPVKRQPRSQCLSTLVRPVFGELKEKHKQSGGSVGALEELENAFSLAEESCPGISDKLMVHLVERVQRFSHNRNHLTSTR

[2] = Clearance in human microsomes; assay type: ADME, Microsome
[3] = Efflux ratio of permeability across basolateral to apical side over apical to basolateral side in human Caco-2 cells; assay type: ADME, cell-based
[4] = Solubility of compound; assay type: physicochemical
[5] = Plasma protein binding in mouse plasma assessed as free fraction; assay type: ADME, cell-free
[6] = molecular target: T1, Serine/threonine-protein kinase 25; assay: Inhibition of STK25 (unknown origin) by cellular target engagement assay
Target sequence in this assay (O00506 whole entry): as above

[7] = molecular target: T1, Serine/threonine-protein kinase 25; assay: Inhibition of STK25 (unknown origin) by FRET assay
[8] = Cytotoxicity against human HepG2 cells assessed as cell growth inhibition; assay type: toxicity, cell-based
[9] = Clearance in mouse microsomes; assay type: ADME, Microsome
[10] = Permeability of the compound in human Caco-2 cells at 10 uM; assay type: ADME, cell-based; conditions: caco-2, 10 µM

Compound: O=C(Nc1c[nH]nc1-c1nc2cc(CN3CCOCC3)ccc2[nH]1)NC1CC1 [AT-9283]
IC50 [1]: 460 nM

Compound: Cc1ccc(C(=O)Nc2cc(C(C)(C)C)n[nH]2)cc1-n1cc(-c2cncc(N3CCOCC3)c2)nn1
IC50 [1]: 12 nM

Compound: CC(C)(C)c1cc(NC(=O)c2nnn3c2CO[C@H](c2ccccc2)C3)n[nH]1
inhibition [7]: inactive

Compound: CC(C)(C)c1cc(NC(=O)c2ccc(C(=O)N3CCCC3)cc2)n[nH]1
IC50 [7]: 5160 nM

Compound: CC(C)(C)c1cc(NC(=O)c2nnn3c2CO[C@@H](Cc2ccccc2)C3)n[nH]1
inhibition [7]: inactive

Further lines, with some results ahead:

CL [2]: 75 mL/min/g
efflux ratio [3]: 1
solubility [4]: > 100 µM
fraction unbound [5]: 0.26
IC50 [6]: 211 nM
IC50 [7]: 228 nM
CL [9]: 145 mL/min/g
permeability [10]: 100%
Compound: CC(C)(C)c1cc(NC(=O)c2ccc(S(=O)(=O)N3CCCC3)cc2)n[nH]1
IC50 [8]: > 100000 nM

inhibition [7]: inactive
Compound: CC(C)(C)c1cc(NC(=O)c2nnn3c2CO[C@@H](c2ccccc2)C3)n[nH]1

IC50 [7]: 865 nM
Compound: CC(C)(C)c1cc(NC(=O)c2ccc(S(=O)(=O)NC3CCCC3)cc2)n[nH]1

IC50 [7]: 616 nM
Compound: CCCCOc1ccc(C(=O)Nc2cc(C(C)(C)C)[nH]n2)cc1

inhibition [7]: inactive
Compound: CC(C)(C)c1cc(NC(=O)c2nnn3c2CO[C@H](Cc2ccccc2)C3)n[nH]1
